Measured values as given in patent US20250161290A1, “CO-CRYSTALS” (CereSpir Incorporated, priority 2021, published 2025).
Converted amounts (≈) assume the structure as drawn. “Also recorded” adds a separate entry of the source.

Legend:
[1] = Dynamic Vapor Sorption (DVS) water sorption/desorption; type: physicochemical; details: for Mass Change: 25° C.
Protocol: (§1) Samples are analyzed using a TA Instruments Q5000SA gravimetric water sorption analyzer. The relative humidity (RH) is adjusted in 10% RH increments between 5-95% (±1% RH) at 25° C. (±0.5%° C.). The mass of a sample is continuously monitored and recorded with respect to RH and time with criteria for mass equilibrium set as a percent mass change <0.0100 for 5 minutes with a time limit of 720 minutes per step. The humidity is controlled by mixing dry and wet nitrogen streams with a total flow rate of 200 mL/min. The instrument control and data analysis are operated under Advantage for Q Series and Universal Analysis software, respectively.

[2] = Thermogravimetric analysis (TGA), degradation onset; type: physicochemical; details: 10° C. per minute, nitrogen purge
Protocol: TGA data are collected using a TA Instruments Discovery TGA equipped with an autosampler. Typically, 2-5 mg of sample is placed in a pre-tared, Tzero aluminum pan either as a hermetically sealed pan which would be automatically punched open before sample loading for analysis, or as an open pan. A 10° C. per minute ramp rate from ambient temperature to 375° C. using a 25 mL/min nitrogen purge is used. The instrument control and data analysis are operated under TRIOS software.

[3] = in vivo, cited from earlier work
[4] = Solubility assessment of CSP-1103 in organic solvents (qualitative); type: physicochemical; details: organic solvent or mixture, thermodynamic from solid, qualitative solubility at 0.2 M, gentle heating 45° C. 1 minute if required
Protocol: The solubility assessment of CSP-1103 was then performed. Approximately 0.05 mmol of CSP-1103 was weighed out into a 1-dram vial, enough solvent was added to achieve a 0.2 M concentration, and if required, gentle heating was applied at 45° C. for 1 minute. […] After 12 hours, observations were made to determine if the API had remained in solution.

rats after TBI = details: cited from earlier work
[5] = Solubility assessment of CSP-1103 in organic solvents (qualitative); type: physicochemical; details: organic solvent or mixture, thermodynamic from solid
[6] = Coformer and CSP-1103 aqueous solubility assessment (qualitative); type: physicochemical; details: water, thermodynamic from solid, 0.05 M aqueous concentration, gentle heating at 45° C. for 1 minute
Protocol: In a 1-dram vial, enough solvent was added to achieve a 0.05 M aqueous concentration along with some gentle heating at 45° C. for 1 minute to determine if the material would completely dissolve. After 24 hours, observations were made to determine if the material had remained in solution.

[7] = Consolidated qualitative solubility results (Tables 6 and 8); details: for consolidated solubility result: Table 6; for qualitative solvent solubility overlaid with cocrystallization screens' results: Table 8, numbers are molar concentrations pending investigation
[8] = system: patients with mild cognitive impairment (MCI); details: listed as itanapraced, cited from earlier work
[9] = XRPD of pre-exposed and post-exposed DVS samples (solid form stability); type: physicochemical; details: two DVS sorption/desorption cycles, 5-95% RH, 25° C.
Protocol: X-ray powder diffraction analyses are obtained using a BRUKER D8 ADVANCE equipped with a Cu radiation source operated at 40 kV and 40 mA (λ=1.54 Å after Ni filtering) configured in a Bragg-Brentano geometry, equipped with a 90-position AUTO-CHANGER and a silicon strip detector (SSD160-2). A coupled theta-two theta continuous PSD (Position Sensitive Device) fast scan from 4 to 40 degrees are collected over approximately 32 minutes (0.5 sec/0.01° step). A sample is placed onto a polished zero-background silicon wafer by gently distributing onto the flat surface and is analyzed as a flat plate specimen.
as §1

[10] = Phase 2, MCI patients, CSF / brain

Mass Change ([1]; Cycle 1 of 2, Adsorption, RH 5 to 95%): 1.10% | Mass Change ([1]; Cycle 1 of 2, Desorption, RH 95 to 5%): −1.11% | Mass Change ([1]; Cycle 2 of 2, Adsorption, RH 5 to 95%): 1.13% | Mass Change ([1]; Cycle 2 of 2, Desorption, RH 95 to 5%): −1.13% | hygroscopicity classification ([1]; at 95% RH, Ph. Eur. 9.0 (slightly: <2% and ≥0.2%; non: <0.2%)): slightly hygroscopic | average water sorbed or desorbed ([1]; between 5-95% RH): 1.1±0.0% | degradation start by TGA [2]: > 200 °C | solubility (physchem; MTBE, organic solvent or mixture): 100 mM (≈ 32.5 mg/mL) | solubility (physchem; acetonitrile, organic solvent or mixture): < 50 mM | solubility (physchem; ethyl acetate, organic solvent or mixture): 100 mM (≈ 32.5 mg/mL) | solubility (physchem; water): < 50 mM | solubility ([4]; MTBE): < 200 mM | solubility ([4]; acetone): < 200 mM | solubility ([4]; acetonitrile): < 200 mM | solubility ([4]; ethanol): < 200 mM | solubility ([5]; MTBE, qualitative solubility at 0.1 M, gentle heating if required): > 100 mM | solubility ([5]; acetone, qualitative solubility at 0.05 M, gentle heating if required): > 50 mM | solubility ([5]; acetone, qualitative solubility at 0.1 M, gentle heating if required): < 100 mM | solubility ([5]; acetonitrile, qualitative solubility at 0.05 M, gentle heating if required): < 50 mM | solubility ([5]; acetonitrile, qualitative solubility at 0.1 M, gentle heating if required): < 100 mM | solubility ([5]; ethanol, qualitative solubility at 0.05 M, gentle heating if required): > 50 mM | solubility ([5]; ethanol, qualitative solubility at 0.1 M, gentle heating if required): < 100 mM | solubility ([5]; ethyl acetate, qualitative solubility at 0.1 M, gentle heating if required): > 100 mM | solubility ([5]; ethyl acetate, qualitative solubility at 0.2 M, gentle heating 45° C. 1 minute if required): < 200 mM | solubility ([5]; methanol, qualitative solubility at 0.05 M, gentle heating if required): > 50 mM | solubility ([5]; methanol, qualitative solubility at 0.1 M, gentle heating if required): < 100 mM | solubility ([5]; methanol, qualitative solubility at 0.2 M, gentle heating 45° C. 1 minute if required): < 200 mM | solubility [6]: < 50 mM | consolidated solubility result ([7]; MTBE): ✓ | qualitative solvent solubility overlaid with cocrystallization screens' results ([7]; acetone (BP 56° C.)): 50 mM | consolidated solubility result ([7]; acetone): ✓ | qualitative solvent solubility overlaid with cocrystallization screens' results ([7]; ethanol (BP 79° C.)): 50 mM | consolidated solubility result ([7]; ethanol): ✓ | consolidated solubility result ([7]; ethyl acetate): ✓ | qualitative solvent solubility overlaid with cocrystallization screens' results ([7]; methanol (BP 65° C.)): 50 mM | consolidated solubility result ([7]; methanol): ✓ | solid form change after DVS exposure (XRPD pre- vs post-exposed) [9]: no solid form change | solid form change after DVS exposure (XRPD pre- vs post-exposed) ([9]; listed as CSP): no solid state form changes
Structure (SMILES): O=C(O)C1(c2ccc(-c3ccc(Cl)c(Cl)c3)c(F)c2)CC1 [CSP-1103, 1-(3′,4′-dichloro-2-fluoro[1,1′-biphenyl]-4-yl)-cyclopropanecarboxylic acid]
oral bioavailability ([3]; po): good oral bioavailability | penetration into the brain [3]: substantial penetration into the brain | plasma half-life [3]: long plasma half-life | accumulation of hypertrophic microglia in the injured brain (rats after TBI): prevented the accumulation of hypertrophic microglia | acute lung injury (rats after TBI): attenuated | neurological injury (rats after TBI): attenuated | safety and tolerability ([8]; Phase 2, MCI patients treated up to two years): good safety and tolerability; also recorded: well tolerated | TNF-α (neuroinflammatory mediator) [8, 10]: beneficial dose-related CSF differences; also recorded: dose-related statistically significant reductions | soluble CD40 ligand (neuroinflammatory mediator) [8, 10]: beneficial dose-related CSF differences; also recorded: dose-related statistically significant reductions | total tau (marker of neurodegeneration) [8, 10]: beneficial dose-related CSF differences; also recorded: dose-related statistically significant reductions | cognitive function ([8]; throughout the duration of the trial): stable cognition; also recorded: stable cognitive function
